Results: publication PMC8881077 (Journal of Enzyme Inhibition and Medicinal Chemistry, 2022)
“And” between values parts separate entries of the source, which are not always exact repeats. Identical values can stand only once.

Assays:
[1] = for ORAC: Trolox as standard
Experimental: The skeleton compounds naringenin and apigenin were also evaluated for comparison purposes, and vitamin E analogue Trolox was used as a standard.
The antioxidant potency of target compounds was tested using an oxygen radical absorbance capacity fluorescein (ORAC-FL) assay.

[2] = PAMPA-BBB; for Pe: final concentration 100 μg/mL
[3] = biological target: huAChE-induced Aβ1–40 aggregation (Homo sapiens, UniProt P22303); experiment: huAChE-induced Aβ1–40 aggregation, ThT assay; format: biochemical; details: inhibitor 100 μM, Aβ1–40 230 μM, Aβ1–40/AChE ratio 100/1
Chain of huAChE-induced Aβ1–40 aggregation (P22303 32-588 isoform P22303-2): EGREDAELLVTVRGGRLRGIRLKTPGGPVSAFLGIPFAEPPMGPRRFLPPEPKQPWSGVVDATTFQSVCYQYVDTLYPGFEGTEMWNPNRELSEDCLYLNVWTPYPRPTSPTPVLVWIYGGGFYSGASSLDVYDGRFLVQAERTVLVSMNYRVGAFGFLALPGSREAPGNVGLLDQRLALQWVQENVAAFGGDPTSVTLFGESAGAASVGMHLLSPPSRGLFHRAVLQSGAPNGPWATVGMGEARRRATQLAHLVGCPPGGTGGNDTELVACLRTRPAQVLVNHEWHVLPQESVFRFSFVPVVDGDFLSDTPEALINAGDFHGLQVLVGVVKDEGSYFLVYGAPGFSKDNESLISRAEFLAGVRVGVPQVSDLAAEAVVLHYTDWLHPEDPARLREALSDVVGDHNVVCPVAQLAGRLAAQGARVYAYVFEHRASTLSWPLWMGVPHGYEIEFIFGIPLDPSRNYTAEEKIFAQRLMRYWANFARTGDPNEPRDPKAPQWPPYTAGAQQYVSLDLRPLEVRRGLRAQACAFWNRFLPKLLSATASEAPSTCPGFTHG

[4] = system: normal human hepatocytes cell line (LO2); experiment: Hepatotoxicity on LO2 cells; format: cell-based; details: 2.5 μM to 80.0 μM
Experimental: The anti-AD drug tacrine has been forced to withdraw due to severe hepatotoxicity. Thus, the hepatotoxicity of compounds 5f on normal human hepatocytes cell line (LO2) was evaluated using MTT assay. […] Furthermore, the hepatoprotective activity of compound 5f on H2O2-induced live injury was tested using an MTT assay. […]
• Materials. LO2 cells purchased from Wuhan Punosi Life Technology Co., Ltd. 30% H2O2, Trichloroacetic acid (TCA), SRB, DMEM medium (HyClone), Foetal bovine serum (LNSER, article number: S711-001S), Penicillin streptomycin mixture (double antibiotic) (Solarbio), 0.25% trypsin-EDTA digestive juice (Solarbio), DMSO (Solarbio), Potassium dihydrogen phosphate (Xiyu Science Co., Ltd., CAS: 7778-77-0); Ultra-clean workbench (Wuxi Easy Purification Equipment Co., Ltd., model: SW-CJ-VS2); Carbon dioxide incubator (Esco, model: 2014-88759); […]; • Experiment method. (a) Cell culture: cultured in DMEM medium containing 10% FBS and 1% double-antibody, placed in 37 °C, 5% CO2 constant temperature and humidity incubator, changed every 2 days, subcultured when cells were 90% confluent. […] The OD value was measured at 515 nm using a microplate reader. […] After treatment with H2O2 for 6h, the survival rate was measured by the SRB method.

AChE PAS = AChE PAS (Homo sapiens, UniProt P22303); experiment: biochemical; format: binding
Chain of AChE PAS (P22303 32-614): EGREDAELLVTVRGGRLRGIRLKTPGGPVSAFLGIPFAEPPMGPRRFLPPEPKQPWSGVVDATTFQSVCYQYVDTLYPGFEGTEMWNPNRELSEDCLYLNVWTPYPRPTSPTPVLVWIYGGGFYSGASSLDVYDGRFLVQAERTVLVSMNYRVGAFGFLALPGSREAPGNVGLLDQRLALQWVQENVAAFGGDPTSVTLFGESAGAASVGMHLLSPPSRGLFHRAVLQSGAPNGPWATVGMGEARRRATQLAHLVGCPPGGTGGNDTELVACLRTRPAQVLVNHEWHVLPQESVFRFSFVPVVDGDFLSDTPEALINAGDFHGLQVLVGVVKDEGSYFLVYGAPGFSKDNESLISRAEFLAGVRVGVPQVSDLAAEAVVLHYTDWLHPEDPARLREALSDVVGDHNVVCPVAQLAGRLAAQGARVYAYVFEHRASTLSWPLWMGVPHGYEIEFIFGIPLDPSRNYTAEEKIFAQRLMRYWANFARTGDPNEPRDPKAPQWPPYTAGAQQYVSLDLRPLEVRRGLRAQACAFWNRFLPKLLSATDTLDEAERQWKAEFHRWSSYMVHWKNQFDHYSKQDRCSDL

Aβ1–42 = Aβ1–42 (Homo sapiens, UniProt P05067); experiment: Cu^2+-induced Aβ1–42 aggregation, ThT fluorescence; format: biochemical; details: tested compounds and Aβ1–42 25 μM
Chain of Aβ1–42 (P05067 672-713): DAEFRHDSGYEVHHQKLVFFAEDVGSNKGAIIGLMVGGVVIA
Experimental: Curcumin was also tested as a referenced compound.
The Thioflavin T-based flurometric assay was employed to test the inhibition potency on self-induced/Cu^2+-induced Aβ1-42 aggregation.

BV-2 cells = experiment: Cytotoxicity on BV-2 cells, MTT assay; format: cell-based; details: 1 μM, 3 μM and 9 μM
Experimental: Compounds 5f and 7k were selected to test the anti-inflammatory potency by measuring the production of inflammatory mediators TNF-α and NO in LPS-induced BV-2 cells[32]^,[33]. • Cytotoxicity of compounds 5f and 7k on BV-2 cells. Firstly, the cytotoxicity of compounds 5f and 7k were tested using an MTT assay. […] In inhibition of LPS-induced, NO production was tested through the Griess reaction method. […] […]. In addition, to further investigate the effects of compounds 5f and 7k on LPS-induced TNF-α production in BV-2 cells, the enzyme-linked immunosorbent assay (ELISA) was used. […].
The anti-neuroinflammatory property of compounds 5f and 7k was assessed using BV-2 cells by evaluating the level of NO production and TNF-α production[32]^,[33]. Firstly, the cytotoxicity of compounds 5f and 7k was tested on BV-2 cells using an MTT assay. BV-2 cells were seeded in DMEM (100 μL) and cultured in a 96-well cell culture microplate and incubated in a humidified incubator containing 5% CO2 at 37 °C for 24 h. Then, 10 μL of 5f or 7k were added to cells in triplicate wells, followed by incubation for another 30 min. […] Finally, the crystals obtained were dissolved in DMSO (200 μ L) and OD values were measured at 490 nm. The results were recorded and expressed as the percent cell viability compared to the control group.

SPF Kunming mice = experiment: Acute toxicity; format: in vivo
Experimental: Kunming mice at a body weight of 18–22 g (six weeks old, either gender) were supplied by the Centre of Experimental Animals of Sichuan Academy of Chinese Medicine Sciences (eligibility certification no. SCXK-Chuan2018-19). Mice were maintained under standard conditions with a 12 h:12 h light-dark cycle at 20−22 °C with a relative humidity of 60 − 70%. Sterile food and water were provided according to institutional guidelines. Prior to each experiment, mice were fasted overnight and allowed free access to water. […] After the administration of the compound 5f, the mice were observed continuously for the first 4 h for any abnormal behaviour and mortality changes, intermittently for the next 24 h, and occasionally thereafter for 14 days for the onset of any delayed effects. All animals were sacrificed on the 14th day after drug administration and were macroscopically examined for possible damage to the heart, liver, and kidneys.

huAChE = huAChE (Homo sapiens, UniProt P22303); experiment: Enzyme kinetic study of huAChE (Lineweaver-Burk); format: biochemical; parameters: AChE from human erythrocytes (Sigma Co.); purchased Sigma Co; host or cells: human erythrocytes; details: for type of AChE inhibition: Lineweaver-Burk plot; for Ki: replots of slope versus concentration, read-out: inhibition constant Ki
Chain of huAChE (P22303 32-617 isoform P22303-2 limits assumed): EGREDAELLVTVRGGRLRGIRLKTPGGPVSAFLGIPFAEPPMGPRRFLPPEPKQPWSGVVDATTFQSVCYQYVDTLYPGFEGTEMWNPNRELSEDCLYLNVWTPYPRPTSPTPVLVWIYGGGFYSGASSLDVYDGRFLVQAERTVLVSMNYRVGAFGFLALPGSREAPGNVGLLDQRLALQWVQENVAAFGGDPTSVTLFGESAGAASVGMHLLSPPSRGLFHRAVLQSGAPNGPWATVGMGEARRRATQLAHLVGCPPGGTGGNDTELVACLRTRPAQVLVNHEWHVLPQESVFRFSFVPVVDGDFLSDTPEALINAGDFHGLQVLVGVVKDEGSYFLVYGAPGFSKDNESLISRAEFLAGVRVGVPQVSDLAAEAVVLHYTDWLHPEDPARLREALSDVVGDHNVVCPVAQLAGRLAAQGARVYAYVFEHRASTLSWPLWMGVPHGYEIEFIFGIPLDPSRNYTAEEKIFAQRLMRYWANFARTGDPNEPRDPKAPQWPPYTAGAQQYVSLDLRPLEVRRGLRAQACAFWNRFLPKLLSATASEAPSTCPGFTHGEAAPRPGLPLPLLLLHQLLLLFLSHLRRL
Description: An enzyme kinetic study was applied to determine the mechanism of AChE inhibition for compounds 5f and 7k. The lineweaver-Burk double reciprocal plot was used to define the inhibition by plotting the initial velocities of the substrate at the y-axis and increasing concentrations of the substrate at the x-axis[17]^,[19]. […] […].
Figure 3. Enzyme kinetic study on the mechanism of huAChE inhibition by compounds 5f and 7k. […] (D) Representing the plots of slope versus the concentration of 7k for determining the inhibition constants Ki. […] |

Compound | ORAC values [1] [eq] | ORAC [1] | Prediction [2] | Pe [2] | Inhibition of huAChE-induced Aβ1–40 aggregation (%) [3] [%] | LO2 cell viability (hepatotoxicity) [4] | inhibition at 10 µM (AChE PAS; 10 μM, read-out: Propidium iodide displacement from AChE PAS (% inhibition)) [%] | inhibition at 50 µM (AChE PAS; 50 μM, read-out: Propidium iodide displacement from AChE PAS (% inhibition)) [%] | inhibition at 25 µM (Aβ1–42) [%] | cell viability of BV-2 cells (BV-2 cells) | acute toxicity, recovery (SPF Kunming mice; after 24h) | acute toxicity, heart, liver, spleen, lung and kidney (SPF Kunming mice; after 7 days) | acute toxicity, observed signs (SPF Kunming mice; dose of 500 mg/kg, intragastric) | type of AChE inhibition (huAChE) | Ki (huAChE) [nM] | Propidium iodide displacement from AChE PAS (% inhibition) (AChE PAS; 10 μM) [%] | Propidium iodide displacement from AChE PAS (% inhibition) (AChE PAS; 50 μM) [%] | Inhibition of Aβ1–42 aggregation, Cu^2+-induced (%) (Aβ1–42)
CCN(CCCCCOc1cc(O)c2c(c1)OC(c1ccc(O)cc1)CC2=O)Cc1ccccc1 (stereo not shown) [Compound 5f, 7-((5-(benzyl(ethyl)amino)pentyl)oxy)-5-hydroxy-2–(4-hydroxyphenyl)chroman-4-one] | 2.3 | 2.3 ± 0.03 μM of Trolox equivalent/μM of tested compound | CNS+ (Pe > 3.44 displayed high BBB permeation) | 6.9e-06 cm/s | 51.7 ± 0.75 | did not show an obvious change until the concentration increased to 40.0 μM | 25.7 ± 1.9 | 36.9 ± 3.5 | 73.5 ± 0.25 | did not show obvious change | returned to normal | no abnormalities were observed | decreased spontaneous activity and movement, drowsiness, dyspnoea and reduced breathing rate | mixed-type | 740 | – | – | –
7-((6-(benzyl(ethyl)amino)hexyl)oxy)-2–(4-((6-(benzyl(ethyl)amino)hexyl)oxy)phenyl)-5-hydroxychroman-4-one [Compound 7k] | – | 1.2 ± 0.02 μM of Trolox equivalent/μM of tested compound | CNS+ (Pe > 3.44 displayed high BBB permeation) | 11.7 ×10^−6 cm/s and 11.7 ± 0.54 ×10^−6 cm/s | 43.4 ± 0.43 | – | – | – | – | did not show obvious change | – | – | – | mixed-type | 390 | 23.1 ± 1.2 | 34.3 ± 2.1 | 68.7 ± 0.46
